Measured values published in article PMC3961306, “Comparison of the Cancer Gene Targeting and Biochemical Selectivities of All Targeted Kinase Inhibitors Approved for Clinical Use” (PLoS ONE, 2014).

Key:
Experiment in all cases: Kinase profiling in a biochemical assay panel (mobility shift assays and ELISA), %-inhibition at 1 μM; selectivity entropy
[1] = target: panel of more than 300 wild-type and mutant kinases (313 kinase panel) (Homo sapiens, UniProt P07333); conditions: kinase FMS; compound at 1 μM
[2] = target: panel of more than 300 wild-type and mutant kinases (313 kinase panel) (Homo sapiens, UniProt Q9P0L2); conditions: kinase MARK1; compound at 1 μM
Chain of panel of more than 300 wild-type and mutant kinases (313 kinase panel) (Homo sapiens, UniProt Q9P0L2) (Q9P0L2 whole entry, change not shown): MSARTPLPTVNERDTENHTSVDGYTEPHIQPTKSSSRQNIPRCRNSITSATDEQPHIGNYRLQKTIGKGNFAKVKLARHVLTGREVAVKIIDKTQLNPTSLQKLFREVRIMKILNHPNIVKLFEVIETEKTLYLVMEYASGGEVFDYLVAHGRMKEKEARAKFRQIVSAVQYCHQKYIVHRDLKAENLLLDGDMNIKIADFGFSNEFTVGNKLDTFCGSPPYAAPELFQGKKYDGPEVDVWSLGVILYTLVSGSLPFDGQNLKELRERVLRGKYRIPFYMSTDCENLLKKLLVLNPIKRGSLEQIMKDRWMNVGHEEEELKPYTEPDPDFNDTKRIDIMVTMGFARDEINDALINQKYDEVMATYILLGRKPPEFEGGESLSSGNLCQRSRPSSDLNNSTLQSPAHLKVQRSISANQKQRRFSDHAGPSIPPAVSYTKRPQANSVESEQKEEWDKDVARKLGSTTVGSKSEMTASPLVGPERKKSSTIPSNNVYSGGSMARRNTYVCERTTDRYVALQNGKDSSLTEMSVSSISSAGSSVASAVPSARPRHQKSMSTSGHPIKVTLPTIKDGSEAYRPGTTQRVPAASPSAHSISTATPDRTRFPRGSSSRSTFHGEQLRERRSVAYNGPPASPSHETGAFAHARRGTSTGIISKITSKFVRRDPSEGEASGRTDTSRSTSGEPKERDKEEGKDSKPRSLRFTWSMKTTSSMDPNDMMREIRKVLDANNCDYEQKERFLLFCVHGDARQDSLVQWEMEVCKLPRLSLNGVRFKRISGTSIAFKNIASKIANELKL

[3] = target: panel of more than 300 wild-type and mutant kinases (313 kinase panel) (Homo sapiens, UniProt P06241); conditions: kinase FYN; compound at 1 μM
Chain of panel of more than 300 wild-type and mutant kinases (313 kinase panel) (Homo sapiens, UniProt P06241) (P06241 whole entry, change not shown): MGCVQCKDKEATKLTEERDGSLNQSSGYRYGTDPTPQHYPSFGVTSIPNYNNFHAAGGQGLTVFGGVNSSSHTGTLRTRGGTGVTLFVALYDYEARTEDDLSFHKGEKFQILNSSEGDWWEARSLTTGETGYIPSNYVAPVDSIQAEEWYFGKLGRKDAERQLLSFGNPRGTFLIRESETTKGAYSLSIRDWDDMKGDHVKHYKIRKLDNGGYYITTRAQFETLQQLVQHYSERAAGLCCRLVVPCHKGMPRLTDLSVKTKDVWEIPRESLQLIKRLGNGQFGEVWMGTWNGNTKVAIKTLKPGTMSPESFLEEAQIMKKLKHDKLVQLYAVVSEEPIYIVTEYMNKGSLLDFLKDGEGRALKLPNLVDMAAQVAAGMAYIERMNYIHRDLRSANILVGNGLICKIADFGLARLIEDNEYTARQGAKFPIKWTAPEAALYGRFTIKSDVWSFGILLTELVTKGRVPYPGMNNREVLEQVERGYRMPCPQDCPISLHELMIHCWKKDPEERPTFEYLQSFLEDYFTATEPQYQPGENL

[4] = target: T1, panel of more than 300 wild-type and mutant kinases (313 kinase panel) (Homo sapiens, UniProt Q06418); conditions: kinase TYRO3; compound at 1 μM
T1 sequence (Q06418 41-890): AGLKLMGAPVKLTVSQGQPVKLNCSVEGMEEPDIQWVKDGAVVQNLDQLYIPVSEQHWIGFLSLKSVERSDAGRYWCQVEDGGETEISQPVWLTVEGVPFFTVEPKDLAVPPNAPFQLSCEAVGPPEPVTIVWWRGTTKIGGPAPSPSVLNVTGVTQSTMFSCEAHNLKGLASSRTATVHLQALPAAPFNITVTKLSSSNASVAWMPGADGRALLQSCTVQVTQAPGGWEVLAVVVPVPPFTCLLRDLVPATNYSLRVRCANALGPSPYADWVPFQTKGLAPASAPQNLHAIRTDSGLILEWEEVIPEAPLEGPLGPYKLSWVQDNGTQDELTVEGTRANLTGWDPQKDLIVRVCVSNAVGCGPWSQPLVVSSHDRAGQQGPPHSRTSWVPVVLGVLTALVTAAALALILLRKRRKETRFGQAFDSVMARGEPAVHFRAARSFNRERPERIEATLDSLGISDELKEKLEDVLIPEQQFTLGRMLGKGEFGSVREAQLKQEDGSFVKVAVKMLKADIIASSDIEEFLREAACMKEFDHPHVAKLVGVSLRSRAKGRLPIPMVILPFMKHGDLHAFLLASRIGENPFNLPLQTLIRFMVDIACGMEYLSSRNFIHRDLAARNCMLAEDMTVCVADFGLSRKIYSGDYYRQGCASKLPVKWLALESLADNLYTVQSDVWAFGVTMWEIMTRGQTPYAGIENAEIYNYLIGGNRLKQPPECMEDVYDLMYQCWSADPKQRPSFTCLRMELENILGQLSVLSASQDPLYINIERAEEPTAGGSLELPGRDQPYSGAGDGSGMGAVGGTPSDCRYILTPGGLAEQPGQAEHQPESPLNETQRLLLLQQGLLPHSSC

[5] = target: T2, panel of more than 300 wild-type and mutant kinases (313 kinase panel) (Homo sapiens, UniProt Q16832); conditions: kinase DDR2; compound at 1 μM
T2 sequence (Q16832 22-855): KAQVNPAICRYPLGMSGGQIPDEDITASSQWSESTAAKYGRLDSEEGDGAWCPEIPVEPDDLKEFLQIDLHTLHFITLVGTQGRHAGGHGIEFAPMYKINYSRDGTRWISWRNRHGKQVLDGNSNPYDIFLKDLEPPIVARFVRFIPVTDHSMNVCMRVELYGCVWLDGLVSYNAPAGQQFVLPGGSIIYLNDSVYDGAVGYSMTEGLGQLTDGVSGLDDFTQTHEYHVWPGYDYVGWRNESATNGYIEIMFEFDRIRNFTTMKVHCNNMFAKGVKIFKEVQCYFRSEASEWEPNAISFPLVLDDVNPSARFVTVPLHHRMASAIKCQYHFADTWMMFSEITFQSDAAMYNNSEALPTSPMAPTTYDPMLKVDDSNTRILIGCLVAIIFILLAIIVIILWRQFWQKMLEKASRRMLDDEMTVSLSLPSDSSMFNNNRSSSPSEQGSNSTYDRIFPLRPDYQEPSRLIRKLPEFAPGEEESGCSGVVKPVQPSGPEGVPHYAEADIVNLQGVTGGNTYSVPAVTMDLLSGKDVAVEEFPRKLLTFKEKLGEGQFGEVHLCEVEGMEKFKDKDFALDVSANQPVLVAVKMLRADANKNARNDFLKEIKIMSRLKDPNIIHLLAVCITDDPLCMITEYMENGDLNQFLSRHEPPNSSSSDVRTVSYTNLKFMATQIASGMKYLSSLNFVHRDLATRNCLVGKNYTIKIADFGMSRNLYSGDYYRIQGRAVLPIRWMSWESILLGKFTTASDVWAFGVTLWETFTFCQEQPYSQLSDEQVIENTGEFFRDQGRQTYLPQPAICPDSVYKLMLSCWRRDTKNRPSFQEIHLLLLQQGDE

[6] = target: panel of more than 300 wild-type and mutant kinases (313 kinase panel) (Homo sapiens, UniProt P42685); conditions: kinase FRK; compound at 1 μM
Chain of panel of more than 300 wild-type and mutant kinases (313 kinase panel) (Homo sapiens, UniProt P42685) (P42685 whole entry, change not shown): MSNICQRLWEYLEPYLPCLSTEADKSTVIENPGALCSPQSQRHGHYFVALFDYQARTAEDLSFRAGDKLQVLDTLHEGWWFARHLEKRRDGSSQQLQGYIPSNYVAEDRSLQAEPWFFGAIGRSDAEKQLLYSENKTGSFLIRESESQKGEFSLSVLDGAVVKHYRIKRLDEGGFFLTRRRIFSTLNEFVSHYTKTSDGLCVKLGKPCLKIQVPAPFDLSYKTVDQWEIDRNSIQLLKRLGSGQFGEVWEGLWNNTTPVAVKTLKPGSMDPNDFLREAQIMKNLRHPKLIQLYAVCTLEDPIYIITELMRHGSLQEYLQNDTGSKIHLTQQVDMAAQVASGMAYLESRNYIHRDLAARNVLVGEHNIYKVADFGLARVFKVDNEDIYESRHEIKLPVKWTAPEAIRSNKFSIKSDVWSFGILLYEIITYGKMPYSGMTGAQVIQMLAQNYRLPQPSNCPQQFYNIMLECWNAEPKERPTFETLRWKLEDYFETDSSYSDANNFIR

[7] = tested on: panel of more than 300 wild-type and mutant kinases (313 kinase panel)
[8] = target: panel of more than 300 wild-type and mutant kinases (313 kinase panel) (Homo sapiens, UniProt Q86Z02); conditions: kinase HIPK1; compound at 1 μM
[9] = target: panel of more than 300 wild-type and mutant kinases (313 kinase panel) (Homo sapiens, UniProt Q13554); conditions: kinase CaMK2β; 1 μM compound
Chain of panel of more than 300 wild-type and mutant kinases (313 kinase panel) (Homo sapiens, UniProt Q13554) (Q13554 whole entry, change not shown): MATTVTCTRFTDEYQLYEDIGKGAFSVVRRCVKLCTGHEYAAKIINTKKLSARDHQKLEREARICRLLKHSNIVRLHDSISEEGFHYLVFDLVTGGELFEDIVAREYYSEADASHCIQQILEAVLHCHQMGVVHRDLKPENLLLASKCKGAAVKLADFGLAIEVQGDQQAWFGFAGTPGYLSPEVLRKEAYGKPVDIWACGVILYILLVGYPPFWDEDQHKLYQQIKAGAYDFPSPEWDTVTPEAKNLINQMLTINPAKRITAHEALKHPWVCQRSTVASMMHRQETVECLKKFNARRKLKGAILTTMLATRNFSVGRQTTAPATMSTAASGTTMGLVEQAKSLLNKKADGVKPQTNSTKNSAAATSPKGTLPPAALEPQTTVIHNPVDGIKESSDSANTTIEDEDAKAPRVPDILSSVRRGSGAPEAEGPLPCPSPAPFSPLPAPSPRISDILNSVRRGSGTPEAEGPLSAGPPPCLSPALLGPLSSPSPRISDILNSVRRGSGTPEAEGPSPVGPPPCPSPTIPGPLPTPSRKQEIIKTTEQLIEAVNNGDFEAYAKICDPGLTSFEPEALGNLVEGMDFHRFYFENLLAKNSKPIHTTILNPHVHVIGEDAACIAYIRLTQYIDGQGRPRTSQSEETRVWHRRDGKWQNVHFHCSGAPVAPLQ

[10] = target: panel of more than 300 wild-type and mutant kinases (313 kinase panel) (Homo sapiens, UniProt Q15208); conditions: kinase NDR1; 1 μM
Chain of panel of more than 300 wild-type and mutant kinases (313 kinase panel) (Homo sapiens, UniProt Q15208) (Q15208 whole entry, change not shown): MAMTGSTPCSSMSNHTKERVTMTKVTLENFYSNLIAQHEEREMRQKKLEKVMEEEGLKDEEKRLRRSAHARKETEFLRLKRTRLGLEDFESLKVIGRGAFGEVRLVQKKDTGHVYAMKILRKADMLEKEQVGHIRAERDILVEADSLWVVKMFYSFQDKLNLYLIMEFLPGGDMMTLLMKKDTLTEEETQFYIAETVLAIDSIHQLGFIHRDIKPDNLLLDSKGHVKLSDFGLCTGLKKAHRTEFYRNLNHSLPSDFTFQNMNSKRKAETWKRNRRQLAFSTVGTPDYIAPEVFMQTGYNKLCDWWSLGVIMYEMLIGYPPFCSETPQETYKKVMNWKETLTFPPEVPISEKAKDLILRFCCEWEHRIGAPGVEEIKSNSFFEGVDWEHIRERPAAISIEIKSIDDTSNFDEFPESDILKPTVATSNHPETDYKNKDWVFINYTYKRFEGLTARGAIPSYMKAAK

With `CCCS(=O)(=O)Nc1ccc(F)c(C(=O)c2c[nH]c3ncc(-c4ccc(Cl)cc4)cc23)c1F` [vemurafenib] the “%-inhibition of FMS” value [1] was 6%, the “%-inhibition of MARK1” value [2] was -9% and the “%-inhibition of FYN” value [3] was 81%. The “%-inhibition of TYRO3” value [4] was 3.16%, the “%-inhibition of DDR2” value [5] was 69% and the “%-inhibition of FRK” value [6] was 62%. The “%-inhibition of EGFR(d746-750)” value ([7]; kinase EGFR(d746-750), compound at 1 μM) was 2.81%, the “%-inhibition of EGFR(d746-750/T790M)” value ([7]; kinase EGFR(d746-750/T790M), compound at 1 μM) was 4.62% and the “%-inhibition of EML4-ALK” value ([7]; kinase EML4-ALK, compound at 1 μM) was -1.53%. The “%-inhibition of LYNb” value ([7]; kinase LYNb, compound at 1 μM) was 62%, the “%-inhibition of NPM1-ALK” value ([7]; kinase NPM1-ALK, 1 μM) was -1.72% and the “%-inhibition of PKCβ2” value ([7]; kinase PKCβ2, 1 μM) was -3%. The “%-inhibition of SRM” value ([7]; kinase SRM, 1 μM) was 102%, the “%-inhibition of TAK1-TAB1” value ([7]; kinase TAK1-TAB1, 1 μM) was 9% and the “%-inhibition of HIPK1” value [8] was -4.72%. For the same compound, the “%-inhibition, CaMK2β” value [9] was -6.64% and the “%-inhibition of NDR1” value [10] was -3.81%.
